Measurements as given in patent publication US9012655B2, “Antimicrobial/adjuvant compounds and methods” (Denouamed, Inc., priority 2011, dated 2015).

Legend:
Test in all cases: MIC panel of challenge pathogens (CLSI)
Type in all cases: cell-based
Bacillus cereus NCTC6349 = details: Bacillus cereus NCTC6349; for MIC: read-out: 100% inhibition; for MIC50: read-out: MIC50 (50%); for MIC80: read-out: MIC80 (80%)
Protocol: (§1) The inocula for each bacterial strain were prepared by picking 5-10 distinct colonies from the culture plates and suspending them in the appropriate broth as per Clinical and Laboratory Standards Institute (CLSI) guidelines M07-A8, M24-A or M11-A7 as appropriate. The inoculum was resuspended by vigorous shaking on a vortex mixer for 15 s. The turbidity was then adjusted to McFarland standard 0.5 ([…]). The inoculum was further diluted in the appropriate media for MIC tests to give a final inoculum in each well of 2-8×10^5 CFU/ml. MICs were tested in the appropriate broth in accordance with the appropriate CLSI guidelines.
(§2) A stock solution of each compound was prepared at a concentration of 1.28 g/L in DMSO. The stock was further diluted in the appropriate media to give a top starting concentration of 128 mg/L in the assay. 100 μL of the appropriate media, as per CLSI guidelines, was dispensed into each well in columns 2-12. 200 μL of the each compound solution (at 256 mg/L) was dispensed into each well in column 1. 100 μL aliquots were pipetted from column 1 wells and dispensed into column 2 with a multichannel pipette (±2% coefficient of variation) thus diluting two-fold. 100 μL samples were then pipetted from column 2 wells and dispensed into column 3. The process was repeated through to column 10. The final 100 μL of diluted drug from column 10 was then discarded. Row 11 acted as a positive control (no compound, but organisms added), Row 12 acted as a negative control (no compound, and no organisms added).
(§3) 100 μL of the appropriate inoculum suspension in the appropriate media, as per CLSI guidelines, was added to the appropriate wells. […] All plates were incubated in the dark under aerobic or anaerobic conditions at 30-37° C. for 24-48 hours, according to the appropriate CLSI guideline. Plates were read visually 24-48 hours post inoculation. Endpoints of 100% inhibition were determined (CLSI interpretation endpoints following visual examination).
(§4) MIC50, MIC80, and 100% inhibition results are reported below in μg/mL in the following Tables, indicating each compound tested against a given species and strain: […]

[1] = system: Enterococcus faecalis ATCC29212; details: Enterococcus faecalis ATCC29212; for MIC: read-out: 100% inhibition; for MIC50: read-out: MIC50 (50%); for MIC80: read-out: MIC80 (80%)
Protocol: as §1, §2, §3, §4

[2] = system: Enterococcus faecalis ATCC51299; details: Enterococcus faecalis ATCC51299; for MIC: read-out: 100% inhibition; for MIC50: read-out: MIC50 (50%); for MIC80: read-out: MIC80 (80%)
Protocol: as §1, §2, §3, §4

[3] = system: Enterococcus faecium ATCC700221; details: Enterococcus faecium ATCC700221; for MIC: read-out: 100% inhibition; for MIC50: read-out: MIC50 (50%); for MIC80: read-out: MIC80 (80%)
Protocol: as §1, §2, §3, §4

[4] = system: Staphylococcus aureus ATCC43300; details: Staphylococcus aureus ATCC43300; for MIC: read-out: 100% inhibition; for MIC50: read-out: MIC50 (50%); for MIC80: read-out: MIC80 (80%)
Protocol: as §1, §2, §3, §4

[5] = system: Staphylococcus aureus AUR131 007035; details: AUR131007035, Staphylococcus aureus AUR131 007035; for MIC: read-out: 100% inhibition; for MIC50: read-out: MIC50 (50%); for MIC80: read-out: MIC80 (80%)
Protocol: as §1, §2, §3, §4

[6] = system: Staphylococcus aureus AUR58 7005; details: AUR587005, Staphylococcus aureus AUR58 7005; for MIC: read-out: 100% inhibition; for MIC50: read-out: MIC50 (50%); for MIC80: read-out: MIC80 (80%)
Protocol: as §1, §2, §3, §4

[7] = system: Staphylococcus aureus AUR59 7005; details: AUR597005, Staphylococcus aureus AUR59 7005; for MIC: read-out: 100% inhibition; for MIC50: read-out: MIC50 (50%); for MIC80: read-out: MIC80 (80%)
Protocol: as §1, §2, §3, §4

[8] = system: Staphylococcus aureus AUR60 7005; details: AUR607005, Staphylococcus aureus AUR60 7005; for MIC: read-out: 100% inhibition; for MIC50: read-out: MIC50 (50%); for MIC80: read-out: MIC80 (80%)
Protocol: as §1, §2, §3, §4

[9] = system: Staphylococcus aureus EUP MRSA002; details: EUPMRSA002, Staphylococcus aureus EUP MRSA002; for MIC: read-out: 100% inhibition; for MIC50: read-out: MIC50 (50%); for MIC80: read-out: MIC80 (80%)
Protocol: as §1, §2, §3, §4

[10] = system: Staphylococcus aureus EUP MRSA004; details: EUPMRSA004, Staphylococcus aureus EUP MRSA004; for MIC: read-out: 100% inhibition; for MIC50: read-out: MIC50 (50%); for MIC80: read-out: MIC80 (80%)
Protocol: as §1, §2, §3, §4

[11] = system: Staphylococcus aureus EUP SAU040; details: EUPSAU040, Staphylococcus aureus EUP SAU040; for MIC: read-out: 100% inhibition; for MIC50: read-out: MIC50 (50%); for MIC80: read-out: MIC80 (80%)
Protocol: as §1, §2, §3, §4

[12] = system: Staphylococcus aureus NRS1 (ATCC700699); details: Staphylococcus aureus NRS1 (ATCC700699); for MIC: read-out: 100% inhibition; for MIC50: read-out: MIC50 (50%); for MIC80: read-out: MIC80 (80%)
Protocol: as §1, §2, §3, §4

[13] = system: Staphylococcus aureus NRS2 (ATCC700698); details: Staphylococcus aureus NRS2 (ATCC700698); for MIC: read-out: 100% inhibition; for MIC50: read-out: MIC50 (50%); for MIC80: read-out: MIC80 (80%)
Protocol: as §1, §2, §3, §4

[14] = system: Staphylococcus aureus NRS382; details: Staphylococcus aureus NRS382; for MIC: read-out: 100% inhibition; for MIC50: read-out: MIC50 (50%); for MIC80: read-out: MIC80 (80%)
Protocol: as §1, §2, §3, §4

[15] = system: Staphylococcus aureus NRS383; details: Staphylococcus aureus NRS383; for MIC: read-out: 100% inhibition; for MIC50: read-out: MIC50 (50%); for MIC80: read-out: MIC80 (80%)
Protocol: as §1, §2, §3, §4

[16] = system: Staphylococcus aureus NRS384; details: Staphylococcus aureus NRS384; for MIC: read-out: 100% inhibition; for MIC50: read-out: MIC50 (50%); for MIC80: read-out: MIC80 (80%)
Protocol: as §1, §2, §3, §4

[17] = system: Staphylococcus epidermidis NRS122; details: Staphylococcus epidermidis NRS122; for MIC: read-out: 100% inhibition; for MIC50: read-out: MIC50 (50%); for MIC80: read-out: MIC80 (80%)
Protocol: as §1, §2, §3, §4

[18] = system: Staphylococcus epidermidis NRS7; details: Staphylococcus epidermidis NRS7; for MIC: read-out: 100% inhibition; for MIC50: read-out: MIC50 (50%); for MIC80: read-out: MIC80 (80%)
Protocol: as §1, §2, §3, §4

Fc1ccc(-c2cc(-c3nnn[nH]3)sc2-c2ccc(F)c3ccccc23)c2ccccc12 [DNM0537, 5-(4,5-Bis(4-fluoronaphthalen-1-yl)thiophen-2-yl)-1H-tetrazole]
0.5 µg/mL: MIC50 [1] | MIC [2] | MIC50 [2] | MIC80 [2] | MIC [3] | MIC50 [3] | MIC80 [3] | MIC50 [4] | MIC50 [10] | MIC50 [18]
1 µg/mL: MIC [1] | MIC80 [1] | MIC [4] | MIC80 [4] | MIC [9] | MIC50 [9] | MIC80 [9] | MIC [10] | MIC80 [10] | MIC [11] | MIC50 [11] | MIC80 [11] | MIC [13] | MIC50 [13] | MIC80 [13] | MIC [18] | MIC80 [18]
4 µg/mL: MIC [17] | MIC50 [17] | MIC80 [17]
≤ 0.25 µg/mL: MIC (Bacillus cereus NCTC6349) | MIC50 (Bacillus cereus NCTC6349) | MIC80 (Bacillus cereus NCTC6349) | MIC [5] | MIC50 [5] | MIC80 [5] | MIC [6] | MIC50 [6] | MIC80 [6] | MIC [7] | MIC50 [7] | MIC80 [7] | MIC [8] | MIC50 [8] | MIC80 [8] | MIC [12] | MIC50 [12] | MIC80 [12] | MIC [14] | MIC50 [14] | MIC80 [14] | MIC [15] | MIC50 [15] | MIC80 [15] | MIC [16] | MIC50 [16] | MIC80 [16]

CC(C)c1cc(Cl)ccc1-c1cc(-c2nnn[nH]2)sc1-c1ccc(Cl)cc1C(C)C [DNM0548, 5-(4,5-Bis(4-chloro-2-iso-propylphenyl)thiophen-2-yl)-1H-tetrazole]
0.5 µg/mL: MIC [5] | MIC50 [5] | MIC80 [5] | MIC [7] | MIC50 [7] | MIC80 [7] | MIC [8] | MIC50 [8] | MIC80 [8] | MIC [9] | MIC50 [9] | MIC80 [9] | MIC [10] | MIC50 [10] | MIC80 [10] | MIC [11] | MIC50 [11] | MIC80 [11] | MIC [13] | MIC50 [13] | MIC80 [13] | MIC [14] | MIC50 [14] | MIC80 [14] | MIC [18] | MIC50 [18] | MIC80 [18]
1 µg/mL: MIC [6] | MIC50 [6] | MIC80 [6] | MIC [17] | MIC50 [17] | MIC80 [17]
0.25 µg/mL: MIC [1] | MIC50 [1] | MIC80 [1]
≤ 0.25 µg/mL: MIC (Bacillus cereus NCTC6349) | MIC50 (Bacillus cereus NCTC6349) | MIC80 (Bacillus cereus NCTC6349) | MIC [2] | MIC50 [2] | MIC80 [2] | MIC [3] | MIC50 [3] | MIC80 [3] | MIC [4] | MIC50 [4] | MIC80 [4] | MIC [12] | MIC50 [12] | MIC80 [12] | MIC [15] | MIC50 [15] | MIC80 [15] | MIC [16] | MIC50 [16] | MIC80 [16]
